The target of assay [1] is Sodium-dependent serotonin transporter (Homo sapiens, UniProt P31645). The assay can be described thus: biochemical. It counts as cell-based, HEK293.
The target in assay [2] is T1, D(2) dopamine receptor (Homo sapiens, UniProt P14416). The assay can be described thus: Displacement of [3H]spiperone from D2 receptor.
The target of assay [3] is T2, 5-hydroxytryptamine receptor 2B (Homo sapiens, UniProt P41595). The assay can be described thus: Binding affinity to 5-HT2B receptor.
T2 sequence (P41595 whole entry): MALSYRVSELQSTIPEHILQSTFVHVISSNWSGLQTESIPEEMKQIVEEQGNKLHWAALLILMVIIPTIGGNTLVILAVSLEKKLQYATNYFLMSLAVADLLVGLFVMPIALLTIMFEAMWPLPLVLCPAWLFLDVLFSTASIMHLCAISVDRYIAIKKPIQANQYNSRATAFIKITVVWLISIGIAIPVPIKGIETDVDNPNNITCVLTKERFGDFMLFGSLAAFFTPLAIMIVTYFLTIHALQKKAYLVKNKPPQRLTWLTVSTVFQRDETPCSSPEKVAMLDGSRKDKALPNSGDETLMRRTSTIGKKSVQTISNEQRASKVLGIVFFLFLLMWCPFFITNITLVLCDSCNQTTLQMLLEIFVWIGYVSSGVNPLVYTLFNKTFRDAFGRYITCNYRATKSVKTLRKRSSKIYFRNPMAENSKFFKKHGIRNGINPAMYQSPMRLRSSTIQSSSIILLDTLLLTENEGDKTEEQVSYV
Assay [4] concerns the target 5-hydroxytryptamine receptor 2A (Homo sapiens, UniProt P28223). The assay can be described thus: Agonist activity at 5-HT2A receptor. It is filed as functional.
Assay [5] addresses T3, Adrenergic receptor alpha-1 (Rattus norvegicus, UniProt P15823+P23944+P43140).
T3 sequence (P15823 whole entry): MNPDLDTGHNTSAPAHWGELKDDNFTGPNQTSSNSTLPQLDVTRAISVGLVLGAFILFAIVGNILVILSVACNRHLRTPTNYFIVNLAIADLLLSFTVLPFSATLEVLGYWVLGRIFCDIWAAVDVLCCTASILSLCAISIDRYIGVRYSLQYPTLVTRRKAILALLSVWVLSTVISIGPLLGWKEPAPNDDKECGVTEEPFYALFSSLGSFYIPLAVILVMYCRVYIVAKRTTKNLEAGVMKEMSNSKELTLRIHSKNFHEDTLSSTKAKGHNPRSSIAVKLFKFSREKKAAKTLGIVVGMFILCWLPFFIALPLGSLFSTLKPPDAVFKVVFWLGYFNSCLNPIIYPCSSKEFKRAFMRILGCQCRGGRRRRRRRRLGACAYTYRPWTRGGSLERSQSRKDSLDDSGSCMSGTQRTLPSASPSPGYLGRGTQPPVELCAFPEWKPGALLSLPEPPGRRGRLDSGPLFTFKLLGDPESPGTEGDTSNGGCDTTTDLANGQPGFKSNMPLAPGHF
T3 sequence (P23944 whole entry): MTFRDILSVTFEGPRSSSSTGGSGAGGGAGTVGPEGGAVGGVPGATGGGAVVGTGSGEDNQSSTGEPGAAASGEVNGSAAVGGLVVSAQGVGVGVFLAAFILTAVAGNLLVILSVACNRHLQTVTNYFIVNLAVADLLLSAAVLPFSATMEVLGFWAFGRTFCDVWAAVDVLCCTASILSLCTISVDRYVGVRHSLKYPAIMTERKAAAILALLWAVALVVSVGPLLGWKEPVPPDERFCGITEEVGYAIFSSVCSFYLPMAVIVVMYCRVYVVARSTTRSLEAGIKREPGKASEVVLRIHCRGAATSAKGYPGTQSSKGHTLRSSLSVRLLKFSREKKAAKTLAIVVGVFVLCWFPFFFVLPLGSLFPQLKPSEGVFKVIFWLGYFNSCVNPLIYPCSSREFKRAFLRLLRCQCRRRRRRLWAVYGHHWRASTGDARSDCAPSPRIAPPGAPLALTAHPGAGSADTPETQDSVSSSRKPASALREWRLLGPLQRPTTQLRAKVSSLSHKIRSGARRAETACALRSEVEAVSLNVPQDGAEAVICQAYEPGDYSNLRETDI
T3 sequence (P43140 whole entry): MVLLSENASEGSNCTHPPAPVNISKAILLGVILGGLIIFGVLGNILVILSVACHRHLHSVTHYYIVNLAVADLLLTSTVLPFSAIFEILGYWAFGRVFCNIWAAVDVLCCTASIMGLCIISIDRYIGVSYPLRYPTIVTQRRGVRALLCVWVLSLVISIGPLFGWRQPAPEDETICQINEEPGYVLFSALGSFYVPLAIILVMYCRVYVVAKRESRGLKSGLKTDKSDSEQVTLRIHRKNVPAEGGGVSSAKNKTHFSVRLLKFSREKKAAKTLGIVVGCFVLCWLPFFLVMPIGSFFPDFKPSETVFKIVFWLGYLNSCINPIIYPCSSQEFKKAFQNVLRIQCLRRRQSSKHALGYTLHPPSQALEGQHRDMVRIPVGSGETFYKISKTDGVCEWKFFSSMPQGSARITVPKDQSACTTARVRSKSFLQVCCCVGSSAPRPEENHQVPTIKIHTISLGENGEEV
Description: Binding affinity to alpha1 adrenergic receptor in rat brain membrane by radioligand binding assay. It counts as cell membranes.

In assay [6] the test system is Mus musculus. Description: Antipsychotic activity in ip dosed AIC mouse model assessed as climbing response. It counts as functional.
Assay [7] has as its system Mus musculus. Description: Antipsychotic activity in ip dosed AIC mouse model assessed as stereotype effects. It counts as functional.
The test system of assay [8] is Mus musculus. Description: Inhibition of catalepsy in mouse at 10 mg/kg, ip after 90 mins. It is filed as functional.
In assay [9] the target is T1, D(2) dopamine receptor. Description: Ratio of drug to quinpirole for agonist activity at D2 receptor assessed as change in intracellular cAMP level by cell based assay. It is filed as functional.
The target of assay [10] is T2, 5-hydroxytryptamine receptor 2B. Description: Agonist activity at human recombinant 5-HT2B receptor expressed in CHO-K1 cells assessed as increase in intracellular calcium level by FLIPR assay. It counts as functional, cell-based.
The nature of assay [11]: Selectivity of Ki for human serotonin transporter to Ki for rat alpha1 adrenergic receptor.
The test system of assay [12] is Rattus norvegicus. The assay can be described thus: Behavioral effect in CAR rat model assessed as reduction of avoidance response at 10 mg/kg, ip. It is filed as functional, organism-based. More on the design: dose 10 mg/kg.
For assay [13], the system named is Rattus norvegicus. Description: Behavioral effect in CAR rat model assessed as reduction of avoidance response at 10 mg/kg, po. More on the design: dose 10 mg/kg. It counts as functional, organism-based.
The subject of assay [14] is Rattus norvegicus. The assay can be described thus: Behavioral effect in CAR rat model assessed as increase in escape response at 10 mg/kg, ip. Further details: dose 10 mg/kg. It counts as functional, organism-based.
Assay [15] relates to Rattus norvegicus. Description: Behavioral effect in CAR rat model assessed as increase in escape response at 10 mg/kg, po. It is filed as functional, organism-based. More on the design: dose 10 mg/kg.

Activity calls are given as the source filed them. No cut-off for these calls is given here.

As a reminder, the Ki is the dissociation constant of the complex between target and ligand, obtained from inhibition or displacement. A word on the ED50: it is the midpoint of the dose-response relation. Usually inhibition in vivo stands for the change of the read-out against control, counted positive when it falls.

Chain of 5-hydroxytryptamine receptor 2A (P28223 whole entry): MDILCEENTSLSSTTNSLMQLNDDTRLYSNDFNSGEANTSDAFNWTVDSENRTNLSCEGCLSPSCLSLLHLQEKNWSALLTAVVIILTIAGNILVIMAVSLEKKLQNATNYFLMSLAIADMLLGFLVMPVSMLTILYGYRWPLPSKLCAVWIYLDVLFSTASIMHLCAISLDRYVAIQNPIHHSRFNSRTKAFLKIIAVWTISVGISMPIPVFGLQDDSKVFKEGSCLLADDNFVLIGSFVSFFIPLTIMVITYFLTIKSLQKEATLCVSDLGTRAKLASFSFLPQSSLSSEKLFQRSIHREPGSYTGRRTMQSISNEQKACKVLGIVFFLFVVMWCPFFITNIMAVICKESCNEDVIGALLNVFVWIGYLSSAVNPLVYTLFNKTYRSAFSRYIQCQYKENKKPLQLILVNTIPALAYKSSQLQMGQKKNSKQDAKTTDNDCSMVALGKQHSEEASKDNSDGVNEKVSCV
Chain of Sodium-dependent serotonin transporter (P31645 whole entry): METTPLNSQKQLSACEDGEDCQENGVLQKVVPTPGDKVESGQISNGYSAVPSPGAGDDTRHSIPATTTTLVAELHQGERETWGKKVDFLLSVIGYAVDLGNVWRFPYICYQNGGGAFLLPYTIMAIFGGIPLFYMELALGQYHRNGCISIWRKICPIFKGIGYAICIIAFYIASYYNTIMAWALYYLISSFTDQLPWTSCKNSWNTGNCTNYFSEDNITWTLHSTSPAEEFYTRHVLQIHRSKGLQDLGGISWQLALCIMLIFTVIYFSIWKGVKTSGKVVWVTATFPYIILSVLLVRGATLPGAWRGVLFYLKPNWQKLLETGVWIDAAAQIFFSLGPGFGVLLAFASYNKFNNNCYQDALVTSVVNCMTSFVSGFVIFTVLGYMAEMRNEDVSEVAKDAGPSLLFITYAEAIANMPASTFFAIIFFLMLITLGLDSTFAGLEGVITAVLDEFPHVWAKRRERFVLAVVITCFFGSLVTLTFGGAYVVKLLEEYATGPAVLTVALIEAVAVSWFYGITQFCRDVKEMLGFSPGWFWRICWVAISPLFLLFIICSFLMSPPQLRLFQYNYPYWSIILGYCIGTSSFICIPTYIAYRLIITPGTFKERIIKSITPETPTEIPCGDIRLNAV
T1 sequence (P14416 whole entry): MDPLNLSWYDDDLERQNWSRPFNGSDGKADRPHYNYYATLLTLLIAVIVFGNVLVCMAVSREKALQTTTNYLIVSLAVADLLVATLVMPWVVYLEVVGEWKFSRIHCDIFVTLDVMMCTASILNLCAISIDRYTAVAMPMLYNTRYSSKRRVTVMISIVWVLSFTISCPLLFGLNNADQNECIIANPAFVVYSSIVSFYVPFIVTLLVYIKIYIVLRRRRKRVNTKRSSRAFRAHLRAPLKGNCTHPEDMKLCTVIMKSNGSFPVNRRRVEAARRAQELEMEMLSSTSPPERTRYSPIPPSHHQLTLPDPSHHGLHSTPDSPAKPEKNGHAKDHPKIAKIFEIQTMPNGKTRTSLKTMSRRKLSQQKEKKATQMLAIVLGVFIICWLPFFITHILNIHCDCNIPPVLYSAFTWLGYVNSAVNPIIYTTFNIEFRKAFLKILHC

In the case of `O=c1[nH]c2cccc(N3C[C@H]4C[C@@H]3CN4CC3CCc4[nH]c5ccc(F)cc5c4C3)c2o1` (stereo not given in full) [listing 1 of 3 here], the figures for the Ki (in assay [1]; on D(2) dopamine receptor [2]) were 460 nM and 12 nM, respectively.
The corresponding values for `O=C1Cc2c(ccc3c2OC[C@H](CNCCC2CCc4[nH]c5ccc(F)cc5c4C2)O3)N1` (stereo not given in full) [listing 1 of 2 here] are 24 nM and 24 nM.
The corresponding values for `O=C1Cc2c(cccc2N2CCN(CCC3CCc4[nH]c5ccc(F)cc5c4C3)CC2)N1` (stereo not given) are 4700 nM and 15 nM.
As to `O=c1[nH]c2cccc(OC3CCN(CCC4CCc5[nH]c6ccc(F)cc6c5C4)CC3)c2o1` (stereo not given), the Ki in [1] stood at 1200 nM; on D(2) dopamine receptor [2] it was 310 nM.
The corresponding values for `O=C1Cc2c(ccc3c2OC[C@H](CNCC2CCc4c([nH]c5ccc(F)cc45)C2)O3)N1` (stereo not given in full) are 25 nM and 100 nM.
The corresponding values for `O=C1Cc2c(ccc3c2OC[C@H](CNCCC2CCc4c([nH]c5ccc(F)cc45)C2)O3)N1` (stereo not given in full) are 5200 nM and 36 nM.
The corresponding values for `O=c1[nH]c2cccc(CN3CCN(CC4CCc5[nH]c6ccc(F)cc6c5C4)CC3)c2o1` (stereo not given) are 41 nM and 120 nM.
For the compound `O=c1[nH]c2cccc(N3C[C@H]4C[C@@H]3CN4CC3CCc4[nH]c5ccc(F)cc5c4C3)c2o1` (stereo not given in full) [listing 2 of 3 here], the Ki worked out at 8 nM in [1]; 14 nM at D(2) dopamine receptor [2]; 165 nM in assay [3]; 1800 nM in assay [4]; 65 nM in assay [5]. The ED50 is 2.3 mg/kg in the assay with Mus musculus [6] and more than 5 mg/kg with Mus musculus [7]. Besides, testing at 10 mg/kg with Mus musculus [8] (1.5 h, route intraperitoneal) gave an inhibition in vivo of 48%.
Turning to `O=c1[nH]c2cccc(N3CCN(CC4CCc5c([nH]c6ccc(F)cc56)C4)CC3)c2o1` (stereo not given), the values for the Ki (in assay [1]; at D(2) dopamine receptor [2]) were 62 nM and 220 nM, respectively.
Consider `O=c1[nH]c2cccc(OCC3CCN(CC4CCc5[nH]c6ccc(F)cc6c5C4)CC3)c2o1` (stereo not given), for which the Ki was determined as 0.4 nM in assay [1], 28 nM on D(2) dopamine receptor [2], 110 nM in [3] and 130 nM in assay [5]. Further, the Ratio at D(2) dopamine receptor [9] was less than 0.1. Moreover, the outcome in [10] was inactive.
With `O=c1[nH]c2cccc(OC3CCN(CC4CCc5[nH]c6ccc(F)cc6c5C4)CC3)c2o1` (stereo not given), the Ki in assay [1] came out at 3 nM; on D(2) dopamine receptor [2], 140 nM.
The corresponding values for `O=c1[nH]c2cccc(N3CCN(CCCC4CCc5c([nH]c6ccc(F)cc56)C4)CC3)c2o1` (stereo not given) are 62 nM and 50 nM.
In the same order, the values of `O=C1Cc2c(ccc3c2OC[C@H](CNCCC2CCc4[nH]c5ccc(F)cc5c4C2)O3)N1` (stereo not given in full) [listing 2 of 2 here] are 21 nM and 24 nM.
The corresponding values for `O=c1[nH]c2cccc(OCC3CCN(CCC4CCc5[nH]c6ccc(F)cc6c5C4)CC3)c2o1` (stereo not given) are 10 nM and 720 nM.
Consider `O=C1Cc2c(cccc2N2CCN(CC3CCc4[nH]c5ccc(F)cc5c4C3)CC2)N1` (stereo not given), for which the Ki in [1] was 1140 nM; at D(2) dopamine receptor [2], 15 nM.
Take `O=c1[nH]c2cccc(N3C[C@H]4C[C@@H]3CN4CC3CCc4[nH]c5ccc(F)cc5c4C3)c2o1` (stereo not given in full) [listing 3 of 3 here]: at D(2) dopamine receptor [9], the Ratio amounted to 0.3. Moreover, in assay [10], the outcome was inactive. For the same compound, the Ratio Ki in [11] was determined as 10.
For `O=C1Cc2c(ccc3c2OC[C@H](CNCC2CCc4[nH]c5ccc(F)cc5c4C2)O3)N1` (single isomer, unassigned) [listing 1 of 2 here], the Ki is 7 nM in assay [1]; 3 nM at D(2) dopamine receptor [2]; 130 nM in assay [3]; 2 nM in assay [4]; 0.5 nM in assay [5].
Turning to `O=C1Cc2c(ccc3c2OC[C@H](CNCC2CCc4[nH]c5ccc(F)cc5c4C2)O3)N1` (single isomer, unassigned) [listing 2 of 2 here], at D(2) dopamine receptor [9], the Ratio is 0.3. Further, in assay [10], the outcome was inactive. For the same compound, the Ratio Ki in assay [11] was determined as 10.
`O=c1[nH]c2cccc(N3CCN(CC4CCc5[nH]c6ccc(F)cc6c5C4)CC3)c2o1` (single isomer, unassigned; 30): the Ki was 32 nM in [1] and 60 nM on D(2) dopamine receptor [2].
Turning to `O=c1[nH]c2cccc(N3CCN(CC4CCc5[nH]c6ccc(F)cc6c5C4)CC3)c2o1` (single isomer, unassigned; 31) [listing 1 of 2 here], the Ki in assay [1] was 22 nM; on D(2) dopamine receptor [2] it was 17 nM; in assay [3], 680 nM; in assay [4], 130 nM; in [5] it was 220 nM. The ED50 in the assay on Mus musculus [6] is 0.5 mg/kg; with Mus musculus [7] it was more than 1 mg/kg.
As to `O=c1[nH]c2cccc(N3CCN(CC4CCc5[nH]c6ccc(F)cc6c5C4)CC3)c2o1` (single isomer, unassigned; 31) [listing 2 of 2 here], on D(2) dopamine receptor [9], the Ratio was 0.6. The outcome (in assay [10]; in the assay on Mus musculus [8]) was inactive. The outcome in the assay with Rattus norvegicus [12], with Rattus norvegicus [13], in the assay with Rattus norvegicus [14] and in the assay on Rattus norvegicus [15] was Active.
With `O=C1Cc2c(ccc3c2OC[C@H](CNCCCC2CCc4c([nH]c5ccc(F)cc45)C2)O3)N1` (stereo in doubt; 22) [listing 1 of 2 here], the Ki came to 15 nM in [1]; 50 nM on D(2) dopamine receptor [2]; 610 nM in assay [3]; 6 nM in assay [4]; 54 nM in [5].
With `O=C1Cc2c(ccc3c2OC[C@H](CNCCCC2CCc4c([nH]c5ccc(F)cc45)C2)O3)N1` (stereo in doubt; 22) [listing 2 of 2 here], at D(2) dopamine receptor [9], the Ratio was 0.3. Besides, the result in assay [10] was inactive. For the same compound, in [11], the Ratio Ki was 10.
For the compound `O=C1Cc2c(ccc3c2OC[C@H](CNCCCC2CCc4c([nH]c5ccc(F)cc45)C2)O3)N1` (stereo in doubt; 23) [listing 1 of 2 here], the Ki is 4 nM in [1], 45 nM at D(2) dopamine receptor [2], 400 nM in [3] and 22 nM in assay [5].
Regarding `O=C1Cc2c(ccc3c2OC[C@H](CNCCCC2CCc4c([nH]c5ccc(F)cc45)C2)O3)N1` (stereo in doubt; 23) [listing 2 of 2 here], the Ratio on D(2) dopamine receptor [9] stood at 0.3. Also, the result in assay [10] was inactive. For the same compound, the Ratio Ki in [11] was found to be 10.
Turning to `O=C1Cc2c(ccc3c2OC[C@H](CNCC2CCc4[nH]c5ccc(F)cc5c4C2)O3)N1` (stereo in doubt; 25) [listing 1 of 2 here], the Ki in assay [1] turned out to be 1 nM; on D(2) dopamine receptor [2], 3 nM; in assay [3] it was 6 nM; in [4], 2 nM; in assay [5], 0.72 nM.
For `O=C1Cc2c(ccc3c2OC[C@H](CNCC2CCc4[nH]c5ccc(F)cc5c4C2)O3)N1` (stereo in doubt; 25) [listing 2 of 2 here], the Ratio at D(2) dopamine receptor [9] turned out to be 0.4. In assay [10], the result was inactive. Further, in [11], the Ratio Ki is 10.

Source of the values: ChEMBL document CHEMBL1156031, “Tetrahydrocarbazole-based serotonin reuptake inhibitor/dopamine D2 partial agonists for the potential treatment of schizophrenia” (Bioorg Med Chem Lett, 2009).
